Several values for one entry are separate records, joined by “and”; a condition that tells them apart may be missing. Equal values may be shown once. Toxic doses and inconclusive results are not listed. Rule as the data show it: active = T/C of 150% or more; inactive = T/C below 125%.
Test system: L1210 leukemia ip in BDF1 mice, survival T/C
Assay: NCI In Vivo Anticancer Drug Screen. Data for tumor model L1210 Leukemia (intraperitoneal) in B6D2F1 (BDF1) mice
Settings: endpoint: mean survival time, higher = longer survival
Procedure, shortened: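 Mice bearing the transplanted tumor received compound or vehicle. Survival of the treated group was divided by that of the vehicle-treated control group to give the ratio.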

[1] = dose: 100.0 mg/kg/injection, schedule: Q01DX001 (ip), vehicle: saline
[2] = dose: 100.0 mg/kg/injection, schedule: Q01DX009 (ip), vehicle: saline
[3] = dose: 100.0 mg/kg/injection, schedule: Q04DX003 (ip), vehicle: saline
[4] = dose: 200.0 mg/kg/injection, schedule: Q01DX001 (ip), vehicle: saline
[5] = dose: 200.0 mg/kg/injection, schedule: Q01DX009 (ip), vehicle: saline with Tween-80
[6] = dose: 200.0 mg/kg/injection, schedule: Q01DX009 (ip), vehicle: saline
[7] = dose: 200.0 mg/kg/injection, schedule: Q04DX003 (ip), vehicle: saline
[8] = dose: 400.0 mg/kg/injection, schedule: Q01DX001 (ip), vehicle: saline
[9] = dose: 400.0 mg/kg/injection, schedule: Q04DX003 (ip), vehicle: saline
[10] = dose: 100.0 mg/kg/injection, schedule: Q01DX009 (ip), vehicle: saline with Tween-80
[11] = dose: 100.0 mg/kg/injection, schedule: Q01DX009 (ip), vehicle: Klucel (hydroxypropylcellulose) (HPC)
[12] = dose: 100.0 mg/kg/injection, schedule: Q04DX003 (ip), vehicle: Klucel (hydroxypropylcellulose) (HPC)
[13] = dose: 100.0 mg/kg/injection, schedule: Q01DX001 (ip), vehicle: carboxymethylcellulose (CMC)
[14] = dose: 100.0 mg/kg/injection, schedule: Q01DX009 (ip), vehicle: carboxymethylcellulose (CMC)
[15] = dose: 200.0 mg/kg/injection, schedule: Q01DX001 (ip), vehicle: carboxymethylcellulose (CMC)
[16] = dose: 200.0 mg/kg/injection, schedule: Q01DX009 (ip), vehicle: carboxymethylcellulose (CMC)

Measured: T/C

CC(=O)Nc1ccc2c(c1)C(N)c1ccccc1-2 (stereo not given)
inactive: dose: 88.0 mg/kg/injection, schedule: Q01DX Z (ip), vehicle: carboxymethylcellulose (CMC) 103 % of control | dose: 88.0 mg/kg/injection, schedule: Q01DX Z (ip), vehicle: saline 94 % of control | [1] 113 % of control | [2] 105 % of control | [3] 98 % of control | dose: 132.0 mg/kg/injection, schedule: Q01DX009 (ip), vehicle: saline with Tween-80 111 % of control | dose: 132.0 mg/kg/injection, schedule: Q01DX009 (ip), vehicle: saline 99 % of control | dose: 133.0 mg/kg/injection, schedule: Q01DX Z (ip), vehicle: carboxymethylcellulose (CMC) 92 % of control | dose: 133.0 mg/kg/injection, schedule: Q01DX Z (ip), vehicle: saline 98 % of control | [4] 113 % of control | [5] 118 % of control | [6] 108 % of control | dose: 200.0 mg/kg/injection, schedule: Q01DX Z (ip), vehicle: carboxymethylcellulose (CMC) 105 % of control | [7] 103 % of control | dose: 300.0 mg/kg/injection, schedule: Q01DX009 (ip), vehicle: saline 100 % of control | [8] 109 % of control | [9] 122 % of control

COC(C(=O)O)c1cccs1 (stereo not given)
inactive: dose: 50.0 mg/kg/injection, schedule: Q01DX009 (ip), vehicle: saline with Tween-80 91 % of control | [10] 86 % of control | [5] 100 % of control

Nc1cc(Cl)c(Cl)cc1S(=O)(=O)O
inactive: [11] 101 % of control | [12] 102 % of control | dose: 200.0 mg/kg/injection, schedule: Q01DX009 (ip), vehicle: Klucel (hydroxypropylcellulose) (HPC) 98 % of control | dose: 200.0 mg/kg/injection, schedule: Q04DX003 (ip), vehicle: Klucel (hydroxypropylcellulose) (HPC) 98 % of control | dose: 400.0 mg/kg/injection, schedule: Q01DX009 (ip), vehicle: Klucel (hydroxypropylcellulose) (HPC) 92 % of control | dose: 400.0 mg/kg/injection, schedule: Q04DX003 (ip), vehicle: Klucel (hydroxypropylcellulose) (HPC) 96 % of control

O=[N+]([O-])c1ccc(OCCOCCBr)c(Cl)c1
inactive: [13] 98 % of control and 101 % of control | [14] 101 % of control and 110 % of control | dose: 100.0 mg/kg/injection, schedule: Q04DX003 (ip), vehicle: carboxymethylcellulose (CMC) 100 % of control and 103 % of control | [15] 98 % of control and 90 % of control | [16] 95 % of control and 97 % of control | dose: 200.0 mg/kg/injection, schedule: Q04DX003 (ip), vehicle: carboxymethylcellulose (CMC) 100 % of control and 106 % of control | dose: 400.0 mg/kg/injection, schedule: Q01DX001 (ip), vehicle: carboxymethylcellulose (CMC) 97 % of control and 101 % of control | dose: 400.0 mg/kg/injection, schedule: Q01DX009 (ip), vehicle: carboxymethylcellulose (CMC) 95 % of control and 101 % of control | dose: 400.0 mg/kg/injection, schedule: Q04DX003 (ip), vehicle: carboxymethylcellulose (CMC) 94 % of control

O=C1/C(=N/O)Cc2ccccc21
inactive: dose: 3.13 mg/kg/injection, schedule: Q01DX009 (ip), vehicle: saline with Tween-80 91 % of control | dose: 6.25 mg/kg/injection, schedule: Q01DX009 (ip), vehicle: saline with Tween-80 91 % of control | dose: 12.5 mg/kg/injection, schedule: Q01DX009 (ip), vehicle: saline with Tween-80 94 % of control | dose: 25.0 mg/kg/injection, schedule: Q04DX003 (ip), vehicle: saline with Tween-80 102 % of control | dose: 50.0 mg/kg/injection, schedule: Q04DX003 (ip), vehicle: saline with Tween-80 94 % of control

COc1cc(OC)c(Br)cc1C
inactive: [10] 100 % of control | dose: 100.0 mg/kg/injection, schedule: Q04DX003 (ip), vehicle: saline with Tween-80 100 % of control | [5] 101 % of control | dose: 200.0 mg/kg/injection, schedule: Q04DX003 (ip), vehicle: saline with Tween-80 96 % of control | dose: 400.0 mg/kg/injection, schedule: Q01DX009 (ip), vehicle: saline with Tween-80 102 % of control | dose: 400.0 mg/kg/injection, schedule: Q04DX003 (ip), vehicle: saline with Tween-80 104 % of control

CN(Cc1cccc(Cl)c1)C(=O)Nc1ccccc1Cl
inactive: dose: 100.0 mg/kg/injection, schedule: Q04DX002 (ip), vehicle: Klucel (hydroxypropylcellulose) (HPC) 104 % of control | dose: 200.0 mg/kg/injection, schedule: Q04DX002 (ip), vehicle: Klucel (hydroxypropylcellulose) (HPC) 104 % of control | dose: 400.0 mg/kg/injection, schedule: Q04DX002 (ip), vehicle: Klucel (hydroxypropylcellulose) (HPC) 104 % of control

O=C(Nc1ccc(S(=O)(=O)NC2CCCCC2)cc1)OC(c1ccccc1)c1ccccc1
inactive: [1] 96 % of control | [4] 94 % of control | [8] 100 % of control

COc1ccc2c(c1)CN(S(=O)(=O)c1ccc(C)cc1)CC/C2=N\O
inactive: [2] 94 % of control | [6] 94 % of control | dose: 400.0 mg/kg/injection, schedule: Q01DX009 (ip), vehicle: saline 104 % of control

CC(C)(COC(=O)c1ccc(N)cc1)NC1CCCCC1
inactive: dose: 75.0 mg/kg/injection, schedule: Q01DX001 (ip), vehicle: saline 96 % of control

CC(C)CCC(C)(C)C1=CC(=O)C=CC1=O
inactive: dose: 100.0 mg/kg/injection, schedule: Q04DX002 (ip), vehicle: saline with Tween-80 93 % of control | dose: 200.0 mg/kg/injection, schedule: Q04DX002 (ip), vehicle: saline with Tween-80 90 % of control | dose: 400.0 mg/kg/injection, schedule: Q04DX002 (ip), vehicle: saline with Tween-80 93 % of control

c1c(NC2=NCCO2)cc2c3c1CCCN3CCC2
inactive: dose: 50.0 mg/kg/injection, schedule: Q01DX009 (ip), vehicle: saline 95 % of control

N#Cc1c(CSC(=N)N)sc2ccccc12
inactive: dose: 12.5 mg/kg/injection, schedule: Q04DX003 (ip), vehicle: Klucel (hydroxypropylcellulose) (HPC) 102 % of control | dose: 25.0 mg/kg/injection, schedule: Q01DX009 (ip), vehicle: Klucel (hydroxypropylcellulose) (HPC) 105 % of control | dose: 25.0 mg/kg/injection, schedule: Q04DX003 (ip), vehicle: Klucel (hydroxypropylcellulose) (HPC) 101 % of control | dose: 50.0 mg/kg/injection, schedule: Q01DX009 (ip), vehicle: Klucel (hydroxypropylcellulose) (HPC) 101 % of control | dose: 50.0 mg/kg/injection, schedule: Q04DX003 (ip), vehicle: Klucel (hydroxypropylcellulose) (HPC) 96 % of control | [11] 100 % of control | [12] 98 % of control

Oc1ccc2ccccc2c1N=Nc1ccc(Cl)cc1
inactive: dose: 12.5 mg/kg/injection, schedule: Q01DX015 (ip), vehicle: saline 104 % of control | dose: 25.0 mg/kg/injection, schedule: Q01DX015 (ip), vehicle: saline 106 % of control | dose: 50.0 mg/kg/injection, schedule: Q01DX015 (ip), vehicle: saline 106 % of control | [14] 87 % of control | dose: 100.0 mg/kg/injection, schedule: Q01DX015 (ip), vehicle: saline 98 % of control | dose: 100.0 mg/kg/injection, schedule: Q04DX003 (ip), vehicle: acetone 98 % of control | [16] 87 % of control | dose: 200.0 mg/kg/injection, schedule: Q01DX015 (ip), vehicle: saline 95 % of control | dose: 200.0 mg/kg/injection, schedule: Q04DX003 (ip), vehicle: acetone 94 % of control | dose: 400.0 mg/kg/injection, schedule: Q01DX015 (ip), vehicle: saline 90 % of control | dose: 400.0 mg/kg/injection, schedule: Q04DX003 (ip), vehicle: acetone 88 % of control | dose: 800.0 mg/kg/injection, schedule: Q01DX015 (ip), vehicle: saline 96 % of control | dose: 1600.0 mg/kg/injection, schedule: Q01DX015 (ip), vehicle: saline 89 % of control

O=S1(=O)C=CCC1
inactive: dose: 50.0 mg/kg/injection, schedule: Q01DX001 (ip), vehicle: carboxymethylcellulose (CMC) 100 % of control | [13] 94 % of control | [2] 96 % of control | [3] 100 % of control | [15] 103 % of control | [6] 102 % of control | [7] 94 % of control | [9] 100 % of control

COC(=O)c1cc2ccccc2c2c1OCN(C)C2
inactive: dose: 50.0 mg/kg/injection, schedule: Q01DX001 (ip), vehicle: saline 113 % of control | [1] 110 % of control
